In assay [1] the target is T1, MAPKAPK2 Recombinant Human Protein (Homo sapiens, UniProt P49137).
T1 construct: purchased ThermoFisher pv3317
As to the kind of experiment: MK2 kinase assay (Z'-LYTE kinase assay kit). To be noted: inhibition of MK2 biochemical activity; 90 min incubation at room temperature. A digest of the protocol:
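Z'-LYTE FRET assay with recombinant human MAPKAPK2 and peptide substrate; compound and ATP added, kinase reaction 90 min at room temperature, then development 60 min before stop. Coumarin (445 nm) and fluorescein (520 nm) emissions read at 400 nm excitation.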

The next assay relates to THP-1 cells. As to the kind of experiment: THP-1 cell assay: LPS-stimulated pSer78-Hsp27 ELISA. It is filed as cell-based. To be noted: Homo sapiens, PMA-differentiated THP-1 cells, compound 60 min before 20 ng/mL LPS for 30 min. A digest of the protocol: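 PMA-differentiated THP-1 cells (20 ng/mL PMA 24 h, then 48 h recovery) pretreated with compound 60 min, then stimulated with 20 ng/mL LPS for 30 min. Lysates (~2.5 μg/well) assayed by sandwich ELISA for pSer78-Hsp27, absorbance at 450 nm.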
Background: An ELISA detects its analyte on a solid surface through an enzyme-linked reagent.

Molecules are shown by their SMILES. Where only a bound is given, the exact number is not on record here.

T1 sequence (P49137 whole entry): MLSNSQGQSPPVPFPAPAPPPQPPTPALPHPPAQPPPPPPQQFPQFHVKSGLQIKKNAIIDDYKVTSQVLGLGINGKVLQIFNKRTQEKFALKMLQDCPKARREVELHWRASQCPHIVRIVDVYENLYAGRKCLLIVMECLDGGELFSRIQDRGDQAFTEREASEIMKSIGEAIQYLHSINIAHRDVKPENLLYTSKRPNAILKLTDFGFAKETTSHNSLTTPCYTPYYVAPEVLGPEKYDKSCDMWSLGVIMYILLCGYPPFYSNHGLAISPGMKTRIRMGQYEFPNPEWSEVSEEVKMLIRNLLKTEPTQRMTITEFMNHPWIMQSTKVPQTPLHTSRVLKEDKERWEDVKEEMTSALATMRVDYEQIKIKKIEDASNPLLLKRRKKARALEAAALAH

Take `CN(C)CCn1cnn(-c2ccc3c(c2)Cn2cc(-c4ccc(C#N)cc4)cc2-c2nccn2-3)c1=O` [Example 79, 4-(7-(4-(2-(Dimethylamino)ethyl)-5-oxo-4,5-dihydro-1H-1,2,4-triazol-1-yl)-9H-benzo[e]imidazo[2,1-c]pyrrolo[1,2-a][1,4]diazepin-12-yl)benzonitrile]: the IC50 was 50 to 100 nM in assay [1] and 100 to 200 nM in the assay on THP-1 cells.
As to `Cc1nnc2n1-c1ccc(N3C[C@@H](CN4CCC4)CC3=O)cc1Cn1cc(-c3ccc(C#N)cc3)cc1-2` [Example 82], the IC50 was 50 to 100 nM in assay [1] and 300 to 400 nM in the assay with THP-1 cells.
With `[2H]C([2H])([2H])N(CC1CCN(c2ccc3c(c2)Cn2cc(-c4ccc(C#N)cc4)cc2-c2nnc(C)n2-3)C1=O)C([2H])([2H])[2H]` (centres unmarked) [Example 86, 4-(7-(3-((Bis(methyl-d3)amino)methyl)-2-oxopyrrolidin-1-yl)-3-methyl-9H-benzo [e]pyrrolo[1,2-a][1,2,4]triazolo[3,4-c][1,4]diazepin-12-yl)benzonitrile], the IC50 in assay [1] is less than 50 nM; with THP-1 cells it was 300 to 400 nM.
On the same counts, the results for `CN(C)C[C@H]1CC(=O)N(c2ccc3c(c2)Cn2cc(-c4ccc(C#N)cc4)cc2-c2ncnn2-3)C1` [Example 87, (R)-4-(7-(4-((Dimethylamino)methyl)-2-oxopyrrolidin-1-yl)-9H-benzo[e]pyrrolo [1,2-a][1,2,4]triazolo[5,1-c][1,4]diazepin-12-yl)benzonitrile] are less than 50 nM and 100 to 200 nM.
The corresponding values for `CN(CCO)C[C@H]1CC(=O)N(c2ccc3c(c2)Cn2cc(-c4ccc(F)cc4)cc2-c2nccn2-3)C1` [Example 89, (R)-1-(12-(4-Fluorophenyl)-9H-benzo[e]imidazo[2,1-c]pyrrolo[1,2-a][1,4]diazepin-7-yl)-4-(((2-hydroxyethyl)(methyl)amino)methyl)pyrrolidin-2-one] are 50 to 100 nM and 50 to 100 nM.
Consider `CN(CCO)C[C@H]1CCN(c2ccc3c(c2)Cn2cc(-c4ccc(F)cc4)cc2-c2nccn2-3)C1=O` [Example 90, (R)-1-(12-(4-Fluorophenyl)-9H-benzo[e]imidazo[2,1-c]pyrrolo[1,2-a][1,4]diazepin-7-yl)-3-(((2-hydroxyethyl)(methyl)amino)methyl)pyrrolidin-2-one], for which the IC50 was less than 50 nM in assay [1] and 50 to 100 nM in the assay with THP-1 cells.
For the molecule `CN(C)CCNC(=O)c1ccc2c(c1)Cn1cc(-c3ccc(C#N)cc3)cc1-c1nccn1-2` [Example 101, 12-(4-Cyanophenyl)-N-(2-(dimethylamino)ethyl)-9H-benzo[e]imidazo[2,1-c]pyrrolo[1,2-a][1,4]diazepine-7-carboxamide], the IC50 in assay [1] was in the range of 50 to 100 nM; in the assay on THP-1 cells it was 100 to 200 nM.
`CN1CCC(NC(=O)c2ccc3c(c2)Cn2cc(-c4ccc(C#N)cc4)cc2-c2nccn2-3)C1` (centres unmarked) [Example 105]: the IC50 in assay [1] is less than 50 nM; in the assay with THP-1 cells it was 500 to 1000 nM.
On the same counts, the results for `CN1CC2(C1)CN(C(=O)c1ccc3c(c1)Cn1cc(-c4ccc(C#N)cc4)cc1-c1nccn1-3)C2` [Example 109] are 50 to 100 nM and 200 to 300 nM.
As to `N#Cc1ccc(-c2cc3n(c2)Cc2cc(C(=O)N4CC(C#N)C4)ccc2-n2ccnc2-3)cc1` [Example 110], the results for the IC50 (in assay [1]; with THP-1 cells) were less than 50 nM and 50 to 100 nM, respectively.
The corresponding values for `CN(C)C[C@H]1CCN1C(=O)c1ccc2c(c1)Cn1cc(-c3ccc(C#N)cc3)cc1-c1nccn1-2` [Example 115] are less than 50 nM and 200 to 300 nM.
Regarding `CN(C)C[C@@H]1CCN1C(=O)c1ccc2c(c1)Cn1cc(-c3ccc(C#N)cc3)cc1-c1nccn1-2` [Example 116], the IC50 (in assay [1]; in the assay with THP-1 cells) was less than 50 nM each time.
For `CN(C)CC1CN(C(=O)c2ccc3c(c2)Cn2cc(-c4ccc(C#N)cc4)cc2-c2nccn2-3)C1` [Example 117], the figures for the IC50 (in assay [1]; with THP-1 cells) were 50 to 100 nM and 500 to 1000 nM, respectively.
The corresponding values for `CN1CC(NC(=O)c2ccc3c(c2)Cn2cc(-c4ccc(C#N)cc4)cc2-c2nccn2-3)C1` [Example 119, 2-(4-Cyanophenyl)-N-(1-methylazetidin-3-yl)-9H-benzo[e]imidazo[2,1-c]pyrrolo [1,2-a][1,4]diazepine-7-carboxamide] are less than 50 nM and 500 to 1000 nM.
Consider `CN(C)[C@H]1C[C@H](NC(=O)c2ccc3c(c2)Cn2cc(-c4ccc(C#N)cc4)cc2-c2nccn2-3)C1` [Example 126], for which the results for the IC50 (in assay [1]; in the assay on THP-1 cells) were less than 50 nM and 500 to 1000 nM, respectively.
Turning to `CC(C)N1CC(NC(=O)c2ccc3c(c2)Cn2cc(-c4ccc(C#N)cc4)cc2-c2nccn2-3)C1` [Example 128], the IC50 in assay [1] is less than 50 nM; in the assay on THP-1 cells, 500 to 1000 nM.

One may read the IC50 as the concentration at which inhibition is half-maximal.

(Values after patent US20240140958A1, “FUSED QUADRACYCLIC COMPOUNDS, COMPOSITIONS AND USES THEREOF” (Tabomedex Biosciences, Inc., priority 2021, published 2024).)
